From PMC5218480 (PLoS ONE, 2017)

Test system: MV-4-11 cells
Assay: Gene expression microarray analysis (Affymetrix PrimeView) and GSEA
Type: cell-based, human
Parameters: RFU PODN (11730768_x_at) / Fold change /veh PODN (11730768_x_at) / RFU LINC00158 (11744669_a_at) / Fold change /veh LINC00158 (11744669_a_at) / RFU DUSP10 (11751237_a_at) / Fold change /veh DUSP10 (11751237_a_at) / RFU ID3 (11757404_x_at) / Fold change /veh ID3 (11757404_x_at) / RFU PLEKHG5 (11737974_s_at) / Fold change /veh PLEKHG5 (11737974_s_at) / RFU LRRC4B (11730491_at) / Fold change /veh LRRC4B (11730491_at) / RFU GIMAP4 (11747438_a_at) / Fold change /veh GIMAP4 (11747438_a_at) / RFU KRT8 (11758183_x_at) / Fold change /veh KRT8 (11758183_x_at) / RFU CNN1 (11734310_a_at) / Fold change /veh CNN1 (11734310_a_at) / RFU VPS37D (11726825_at) / Fold change /veh VPS37D (11726825_at) / RFU C10orf10 (11716522_x_at) / Fold change /veh C10orf10 (11716522_x_at) / RFU KIR2DL2 /// KIR2DL4 /// KIR2DL5A /// KIR2DL5B /// KIR2DS1 /// KIR2DS2 /// KIR2DS3 /// KIR2DS4 /// KIR3DL3 /// KIR3DL3 /// KIR3DS1 (11738374_at) / Fold change /veh KIR2DL2 /// KIR2DL4 /// KIR2DL5A /// KIR2DL5B /// KIR2DS1 /// KIR2DS2 /// KIR2DS3 /// KIR2DS4 /// KIR3DL3 /// KIR3DL3 /// KIR3DS1 (11738374_at) / RFU C1QL1 (11718748_at) / Fold change /veh C1QL1 (11718748_at) / RFU TMPRSS4 (11747572_a_at) / Fold change /veh TMPRSS4 (11747572_a_at) / RFU HAMP (11756126_x_at) / Fold change /veh HAMP (11756126_x_at) / RFU RNFT2 (11725882_a_at) / Fold change /veh RNFT2 (11725882_a_at) / RFU NR4A2 (11747474_a_at) / Fold change /veh NR4A2 (11747474_a_at) / RFU ABCC12 (11746883_a_at) / Fold change /veh ABCC12 (11746883_a_at) / RFU TMEM136 (11760407_x_at) / Fold change /veh TMEM136 (11760407_x_at) / RFU CLDN22 /// WWC2 (11732394_at) / Fold change /veh CLDN22 /// WWC2 (11732394_at) / RFU HLA-DPB1 (11760878_x_at) / Fold change /veh HLA-DPB1 (11760878_x_at) / RFU SPINT1 (11716480_a_at) / Fold change /veh SPINT1 (11716480_a_at) / RFU GAP43 (11754022_s_at) / Fold change /veh GAP43 (11754022_s_at) / RFU A4GNT (11735810_at) / Fold change /veh A4GNT (11735810_at) / RFU PRB3 (11715151_x_at) / Fold change /veh PRB3 (11715151_x_at) / RFU TUBB4B (11761932_at) / Fold change /veh TUBB4B (11761932_at) / RFU CAPN14 (11732068_a_at) / Fold change /veh CAPN14 (11732068_a_at) / RFU TMCC2 (11721928_a_at) / Fold change /veh TMCC2 (11721928_a_at) / RFU IRGQ (11745062_a_at) / Fold change /veh IRGQ (11745062_a_at) / RFU FAM174B (11720279_a_at) / Fold change /veh FAM174B (11720279_a_at) / RFU TMPRSS4 (11748680_a_at) / Fold change /veh TMPRSS4 (11748680_a_at) / RFU FAM212B (11763350_a_at) / Fold change /veh FAM212B (11763350_a_at) / RFU PLEKHG5 (11743358_a_at) / Fold change /veh PLEKHG5 (11743358_a_at) / RFU ZSCAN30 (11745921_a_at) / Fold change /veh ZSCAN30 (11745921_a_at) / RFU CMKLR1 (11741424_a_at) / Fold change /veh CMKLR1 (11741424_a_at) / RFU LOC101060620 /// MAPK8IP1 (11723275_at) / Fold change /veh LOC101060620 /// MAPK8IP1 (11723275_at) / RFU SPTSSB (11747773_x_at) / Fold change /veh SPTSSB (11747773_x_at) / RFU PRSS12 (11739890_at) / Fold change /veh PRSS12 (11739890_at) / RFU BIN1 (11741810_x_at) / Fold change /veh BIN1 (11741810_x_at) / RFU WNT11 (11732464_a_at) / Fold change /veh WNT11 (11732464_a_at) / RFU C10orf10 (11716521_a_at) / Fold change /veh C10orf10 (11716521_a_at) / RFU C5orf56 (11738089_at) / Fold change /veh C5orf56 (11738089_at) / RFU CYB561 (11721691_x_at) / Fold change /veh CYB561 (11721691_x_at) / RFU ANKRD19P (11752326_a_at) / Fold change /veh ANKRD19P (11752326_a_at) / RFU OR2T12 /// OR2T33 /// OR2T8 (11738714_s_at) / Fold change /veh OR2T12 /// OR2T33 /// OR2T8 (11738714_s_at) / RFU VCAN (11748164_a_at) / Fold change /veh VCAN (11748164_a_at) / RFU JSRP1 (11732532_at) / Fold change /veh JSRP1 (11732532_at) / RFU KRTAP10-11 (11738290_x_at) / Fold change /veh KRTAP10-11 (11738290_x_at) / RFU MYO3A (11730013_a_at) / Fold change /veh MYO3A (11730013_a_at) / RFU EBF3 (11725865_a_at) / Fold change /veh EBF3 (11725865_a_at) / RFU CAMK2N1 (11719241_x_at) / Fold change /veh CAMK2N1 (11719241_x_at) / RFU C5orf56 (11738088_a_at) / Fold change /veh C5orf56 (11738088_a_at) / RFU OLFML3 (11715873_a_at) / Fold change /veh OLFML3 (11715873_a_at) / RFU LOC100653217 /// NTM (11731650_a_at) / Fold change /veh LOC100653217 /// NTM (11731650_a_at) / RFU MAPK11 (11762145_a_at) / Fold change /veh MAPK11 (11762145_a_at) / RFU FIZ1 (11724087_x_at) / Fold change /veh FIZ1 (11724087_x_at) / RFU OASL (11726364_x_at) / Fold change /veh OASL (11726364_x_at) / RFU SOX15 (11748057_x_at) / Fold change /veh SOX15 (11748057_x_at) / RFU CD79A (11719716_a_at) / Fold change /veh CD79A (11719716_a_at) / RFU HIST1H1D (11736915_at) / Fold change /veh HIST1H1D (11736915_at) / RFU CASKIN2 (11723855_a_at) / Fold change /veh CASKIN2 (11723855_a_at) / RFU LOC730098 (11760151_x_at) / Fold change /veh LOC730098 (11760151_x_at) / RFU OR4N2 (11742367_at) / Fold change /veh OR4N2 (11742367_at) / RFU PRRT2 (11749266_a_at) / Fold change /veh PRRT2 (11749266_a_at) / RFU SNX32 (11753110_a_at) / Fold change /veh SNX32 (11753110_a_at) / RFU CDHR5 (11726645_a_at) / Fold change /veh CDHR5 (11726645_a_at) / RFU RCAN1 (11760418_a_at) / Fold change /veh RCAN1 (11760418_a_at) / RFU FAM167A (11723789_a_at) / Fold change /veh FAM167A (11723789_a_at) / RFU FAM26E (11764081_at) / Fold change /veh FAM26E (11764081_at) / RFU ISYNA1 (11749810_s_at) / Fold change /veh ISYNA1 (11749810_s_at) / RFU ACY1 (11761880_at) / Fold change /veh ACY1 (11761880_at) / RFU 11764098_at / Fold change /veh 11764098_at / RFU SAMD14 (11745864_x_at) / Fold change /veh SAMD14 (11745864_x_at) / RFU NPB (11741838_a_at) / Fold change /veh NPB (11741838_a_at) / RFU TMPRSS6 (11731388_a_at) / Fold change /veh TMPRSS6 (11731388_a_at) / RFU KRTAP10-2 (11738614_at) / Fold change /veh KRTAP10-2 (11738614_at) / RFU ARHGAP8 /// PRR5-ARHGAP8 (11727945_x_at) / Fold change /veh ARHGAP8 /// PRR5-ARHGAP8 (11727945_x_at) / RFU KRTAP5-7 /// NADSYN1 (11734609_at) / Fold change /veh KRTAP5-7 /// NADSYN1 (11734609_at) / RFU RASL12 (11751679_a_at) / Fold change /veh RASL12 (11751679_a_at) / RFU CDKN2B (11736163_a_at) / Fold change /veh CDKN2B (11736163_a_at) / RFU PRF1 (11729649_at) / Fold change /veh PRF1 (11729649_at) / RFU, ZNF638 /// ZNF638-IT1 / Fold change vs veh, ZNF638 /// ZNF638-IT1 / RFU, PANK3 / Fold change vs veh, PANK3 / RFU, SH3YL1 / Fold change vs veh, SH3YL1 / RFU, ZEB2 / Fold change vs veh, ZEB2 / RFU, NRIP1 / Fold change vs veh, NRIP1 / RFU, PTTG1IP / Fold change vs veh, PTTG1IP / RFU, CAPN2 / Fold change vs veh, CAPN2 / RFU, MED14 / Fold change vs veh, MED14 / RFU, SNORA58 / Fold change vs veh, SNORA58 / RFU, C1orf63 / Fold change vs veh, C1orf63 / RFU, LRRFIP1 / Fold change vs veh, LRRFIP1 / RFU, NDUFAF7 / Fold change vs veh, NDUFAF7 / RFU, SLC12A2 / Fold change vs veh, SLC12A2 / RFU, IBTK / Fold change vs veh, IBTK / RFU, ESF1 / Fold change vs veh, ESF1 / Fold change vs veh, TMEM50B / RFU, TAOK1 / Fold change vs veh, TAOK1 / RFU, ACBD3 / Fold change vs veh, ACBD3 / RFU, TMA16 / Fold change vs veh, TMA16 / RFU, RWDD3 / Fold change vs veh, RWDD3 / RFU, BCAT1 / Fold change vs veh, BCAT1 / RFU, EDEM3 / Fold change vs veh, EDEM3 / RFU, TMEM33 / Fold change vs veh, TMEM33 / RFU, WDR75 / Fold change vs veh, WDR75 / RFU, AHCTF1 / Fold change vs veh, AHCTF1 / RFU, TFRC / Fold change vs veh, TFRC / RFU, ZDHHC17 / Fold change vs veh, ZDHHC17 / RFU, NOM1 / Fold change vs veh, NOM1 / RFU, ARL8B / Fold change vs veh, ARL8B / RFU, ZBTB11 / Fold change vs veh, ZBTB11 / RFU, TAMM41 / Fold change vs veh, TAMM41 / RFU, KIAA1704 /// LOC100996395 / Fold change vs veh, KIAA1704 /// LOC100996395 / RFU, ING1 / Fold change vs veh, ING1 / RFU, TRMT61B / Fold change vs veh, TRMT61B / RFU, FUBP3 / Fold change vs veh, FUBP3 / RFU, TP53 / Fold change vs veh, TP53 / RFU, TNKS2 / Fold change vs veh, TNKS2 / RFU, ZFP14 / Fold change vs veh, ZFP14 / RFU, ACTR2 / Fold change vs veh, ACTR2 / RFU, PPP3R1 / Fold change vs veh, PPP3R1 / RFU, PIK3R1 / Fold change vs veh, PIK3R1 / RFU, HNRNPA1 / Fold change vs veh, HNRNPA1 / RFU, RNF170 / Fold change vs veh, RNF170 / RFU, ZNF28 / Fold change vs veh, ZNF28 / RFU, RNGTT / Fold change vs veh, RNGTT / RFU, OGT / Fold change vs veh, OGT / RFU, BRD1 / Fold change vs veh, BRD1 / RFU, MARS / Fold change vs veh, MARS / RFU, ZNF655 / Fold change vs veh, ZNF655 / RFU, FAHD1 / Fold change vs veh, FAHD1 / RFU, BDP1 / Fold change vs veh, BDP1 / RFU, LRRCC1 / Fold change vs veh, LRRCC1 / RFU, ARID1A / Fold change vs veh, ARID1A / RFU, ZNF146 / Fold change vs veh, ZNF146 / RFU, ZNF330 / Fold change vs veh, ZNF330 / RFU, GPN3 / Fold change vs veh, GPN3 / RFU, C9orf123 / Fold change vs veh, C9orf123 / RFU, N4BP2L2 / Fold change vs veh, N4BP2L2 / RFU, ARFIP1 / Fold change vs veh, ARFIP1 / RFU, FAM179B / Fold change vs veh, FAM179B / RFU, BCL10 / Fold change vs veh, BCL10 / RFU, UHRF1BP1L / Fold change vs veh, UHRF1BP1L / RFU, BET1 / Fold change vs veh, BET1 / RFU, CNOT2 / Fold change vs veh, CNOT2 / RFU, ZNF268 / Fold change vs veh, ZNF268 / Fold change vs veh, ZNF507 / RFU, DGCR2 / Fold change vs veh, DGCR2 / RFU, WDSUB1 / Fold change vs veh, WDSUB1 / Fold change vs veh, HSP90B1 /// MIR3652 / RFU, ADSS / Fold change vs veh, ADSS / RFU, GK / Fold change vs veh, GK / RFU, ZNF148 / Fold change vs veh, ZNF148 / RFU, TAF9 / Fold change vs veh, TAF9 / RFU, SLC1A5 / Fold change vs veh, SLC1A5 / RFU, SLMO2 / Fold change vs veh, SLMO2 / RFU, ABCC4 / Fold change vs veh, ABCC4 / RFU, LOC101060439 /// RAP1B / Fold change vs veh, LOC101060439 /// RAP1B / RFU, RFX7 / Fold change vs veh, RFX7 / RFU, GTPBP10 / Fold change vs veh, GTPBP10 / RFU, CNEP1R1 / Fold change vs veh, CNEP1R1 / RFU, BIVM-ERCC5 /// ERCC5 / Fold change vs veh, BIVM-ERCC5 /// ERCC5 / RFU, ILF3 / Fold change vs veh, ILF3 / RFU 11762660_at / Fold change /veh 11762660_at / RFU VCAN (11757783_s_at) / Fold change /veh VCAN (11757783_s_at) / RFU DDX43 (11728927_at) / Fold change /veh DDX43 (11728927_at) / RFU KRT8 (11758188_x_at) / Fold change /veh KRT8 (11758188_x_at) / RFU NKD1 (11759106_at) / Fold change /veh NKD1 (11759106_at) / RFU SRD5A1 (11742802_a_at) / Fold change /veh SRD5A1 (11742802_a_at) / RFU TPSAB1 /// TPSB2 (11721975_s_at) / Fold change /veh TPSAB1 /// TPSB2 (11721975_s_at) / RFU GSTM3 (11746129_a_at) / Fold change /veh GSTM3 (11746129_a_at) / RFU IL23R (11737362_x_at) / Fold change /veh IL23R (11737362_x_at) / RFU TMEM51 (11727254_a_at) / Fold change /veh TMEM51 (11727254_a_at) / RFU PIWIL2 (11732686_x_at) / Fold change /veh PIWIL2 (11732686_x_at) / RFU ORM1 (11744905_x_at) / Fold change /veh ORM1 (11744905_x_at) / RFU CCDC152 (11743942_at) / Fold change /veh CCDC152 (11743942_at) / RFU ECM1 (11717891_a_at) / Fold change /veh ECM1 (11717891_a_at) / RFU IL23R (11748794_a_at) / Fold change /veh IL23R (11748794_a_at) / RFU TNFAIP8L3 (11732012_x_at) / Fold change /veh TNFAIP8L3 (11732012_x_at) / RFU MBOAT4 (11741988_at) / Fold change /veh MBOAT4 (11741988_at) / RFU 11764193_at / Fold change /veh 11764193_at / RFU TMEM53 (11763286_at) / Fold change /veh TMEM53 (11763286_at) / RFU MAGEB2 (11727129_at) / Fold change /veh MAGEB2 (11727129_at) / RFU TMEM200A (11744735_a_at) / Fold change /veh TMEM200A (11744735_a_at) / RFU CCDC152 (11751479_a_at) / Fold change /veh CCDC152 (11751479_a_at) / RFU FAM211A (11726209_a_at) / Fold change /veh FAM211A (11726209_a_at) / RFU RGS16 (11746705_a_at) / Fold change /veh RGS16 (11746705_a_at) / RFU VCAN (11755009_s_at) / Fold change /veh VCAN (11755009_s_at) / RFU RHOB (11743442_s_at) / Fold change /veh RHOB (11743442_s_at) / RFU RGS16 (11720943_a_at) / Fold change /veh RGS16 (11720943_a_at) / RFU RGS16 (11720944_at) / Fold change /veh RGS16 (11720944_at) / RFU, VPS4B / Fold change vs veh, VPS4B / RFU, CREB1 / Fold change vs veh, CREB1 / RFU, DNAJC13 / Fold change vs veh, DNAJC13 / RFU, GNAQ / Fold change vs veh, GNAQ / RFU, CDK5R1 / Fold change vs veh, CDK5R1 / RFU, ZRANB3 / Fold change vs veh, ZRANB3 / RFU, CUL4A / Fold change vs veh, CUL4A / RFU, CCNY / Fold change vs veh, CCNY / RFU, UFL1 / Fold change vs veh, UFL1 / RFU, COG3 / Fold change vs veh, COG3 / RFU, DIAPH2 / Fold change vs veh, DIAPH2 / RFU, SKA2 / Fold change vs veh, SKA2 / RFU, AFF3 / Fold change vs veh, AFF3 / RFU, LMF1 / Fold change vs veh, LMF1 / RFU, IPO11 / Fold change vs veh, IPO11 / RFU, DFFB / Fold change vs veh, DFFB / RFU, FOXP1 / Fold change vs veh, FOXP1 / RFU, CARD8 / Fold change vs veh, CARD8 / RFU, STRN3 / Fold change vs veh, STRN3 / RFU, ADK / Fold change vs veh, ADK / RFU, RASSF2 / Fold change vs veh, RASSF2 / RFU, WIPF1 / Fold change vs veh, WIPF1 / RFU, LARP1B / Fold change vs veh, LARP1B / RFU, RASA1 / Fold change vs veh, RASA1 / RFU, RB1 / Fold change vs veh, RB1 / RFU, PPFIA1 / Fold change vs veh, PPFIA1 / RFU, MAT2A / Fold change vs veh, MAT2A / RFU, CCT5 / Fold change vs veh, CCT5 / RFU, WDR92 / Fold change vs veh, WDR92 / RFU, CUX1 / Fold change vs veh, CUX1 / RFU, TTC7A / Fold change vs veh, TTC7A / RFU, TMEM135 / Fold change vs veh, TMEM135 / RFU, DEPTOR / Fold change vs veh, DEPTOR / RFU, CPM / Fold change vs veh, CPM / RFU, DNAJB6 / Fold change vs veh, DNAJB6 / RFU, CACNA2D3 / Fold change vs veh, CACNA2D3 / RFU, DTX4 / Fold change vs veh, DTX4 / RFU, TFCP2 / Fold change vs veh, TFCP2 / RFU, GMCL1 /// GMCL1P1 / Fold change vs veh, GMCL1 /// GMCL1P1 / RFU, AEBP2 / Fold change vs veh, AEBP2 / RFU, SNHG1 /// SNORD22 /// SNORD25 /// SNORD26 /// SNORD27 /// SNORD28 /// SNORD29 /// SNORD31 / Fold change vs veh, SNHG1 /// SNORD22 /// SNORD25 /// SNORD26 /// SNORD27 /// SNORD28 /// SNORD29 /// SNORD31 / Fold change (Aza/veh), C12orf56 (ProbeSet 11735607_a_at) / Fold change (ACY-1035/veh), C12orf56 (ProbeSet 11735607_a_at) / Fold change (Aza/veh), FGFR1OP (ProbeSet 11751329_s_at) / Fold change (ACY-1035/veh), FGFR1OP (ProbeSet 11751329_s_at) / Fold change (Aza/veh), VPS36 (ProbeSet 11739960_a_at) / Fold change (ACY-1035/veh), VPS36 (ProbeSet 11739960_a_at) / RFU SYPL1 (11715823_x_at) / Fold change /veh SYPL1 (11715823_x_at) / RFU IGFBP7 (11715501_s_at) / Fold change /veh IGFBP7 (11715501_s_at) / RFU REEP3 (11722064_at) / Fold change /veh REEP3 (11722064_at) / RFU IGLL1 (11728026_x_at) / Fold change /veh IGLL1 (11728026_x_at): dose or concentration left out as unconfirmed
Settings: ProbeSet 11763895_x_at; LIST B

Nc1ccc(-c2cccs2)cc1NC(=O)c1ccc2c(c1)cc(C1CC1)n2CCN1CCOCC1 [ACY-1035]
RFU, SNORA58: 14.97 RFU
